Two compounds from patent US7524851B2 (Robert Bosch Gesellschaft fur Medizinische Forschung (RBMF), priority 2003, dated 2009) can be followed below.

Common to all, as to format: cell-based, human
The test system of assay [1] is primary CD4+ T lymphocytes. Briefly: T cell vitality and clonal expansion (trypan blue). The protocol:
Analysis of T cell vitality and clonal expansion: To induce T cell expansion, purified T lymphocytes were stimulated with coated antibodies to CD3 (0.04 μg/ml), soluble antibodies to CD28 (1 μg/ml), and recombinant IL-2 (40 U/ml) for the indicated periods of time. […] Cell viability was assessed by trypan blue (Sigma-Aldrich) staining at the beginning and at the end of the cell culture. The clonal expansion of T cells during cell culture was calculated by the ratio between cell numbers at the beginning and at the end of the cell culture.

The next assay concerns bcl-xL. In words: bcl-xL protein expression (Western blot, intracellular FACS). The following applies: activated T cells. The protocol:
FACS analysis: Analysis of peripheral blood T cells and lamina propria T lymphocytes by FACS (FACSscan; Becton Dickinson; Berlin, Germany) was performed using FITC-labeled murine antibodies to human CD4 (PharMingen), anti-mouse IgG1 isotype control antibodies (PharMingen), antibodies to bcl-xL and p mitogen-activated protein kinase kinase (pMEK) (Santa Cruz Biotech; Santa Cruz, Calif., USA), and goat anti-mouse Fab-FITC (DAKO). For intracellular staining analysis, T cells were fixed in PBS/4% paraformaldehyde (Merck; Munich, Germany) for 10 minutes at 4° C., washed twice in PBS, permeabilized in PBS/0.1% Triton X-100 (Sigma-Aldrich; Steinheim, Germany), and treated with mouse anti-human bcl-xL or MEK antibodies (2 μg per 5×10^5 cells) for 30 minutes on ice. T cells were washed twice in PBS/0.1% Triton X-100 before incubation with goat anti-mouse Fab-FITC (2 μl per 10^5 cells). Finally, T cells were washed twice in PBS before FACS analysis.
The cells were then washed in PBS, resuspended in 1 ml of T40E10N150 buffer (40 mM Tris-HCl [pH 7.9], 10 mM EDTA [pH 8.0], 150 mM NaCl), put on ice for 5 minutes, and centrifuged for 4 minutes at 4° C. at 1,000 rpm. […] The protein concentrations in supernatants were determined with the Bio-Rad Protein Assay (Bio-Rad; Munich, Germany). […]
(In general: In western blotting, separated proteins are transferred to a membrane and probed.)

The test system of another assay is Rac1. In words: Rac1 protein expression (Western blot, immunocytochemistry). The protocol:
(§1) Western blots: Equal amounts of extract (30 μg) were added to 8 μl of electrophoresis sample buffer (Firma Roth; Karlsruhe, Germany). After boiling, the extracts were loaded on 15% SDS-PAGE gels and electrophoretically separated. Proteins were transferred to nitrocellulose membranes, and detection was performed with the ECL Western blotting analysis system (Amersham). […]
(§2) Immunocytochemical analysis: Immunocytochemistry was performed as described in Atreya et al., supra and Finotto et al., J. Exp. Med. 193:1247-1260 (2001)). […] Cells were rinsed with PBS, and nuclei were counterstained with Hoechst33342 blue for fluorescence (Molecular Probes; Burlingame, Calif., USA). Finally, cells were washed in PBS and analyzed with an Olympus Microscope. Six to ten high-power fields were finally analyzed in all patients per condition, and selected high-power fields were further analyzed by confocal laser microscopy.

The test system of a further assay is vav. Briefly: vav protein expression (Western blot, immunocytochemistry). The protocol: as §1, §2

In the case of `Sc1ncnc2nc[nH]c12` [6-MP, 6-mercaptopurine], the “clonal expansion of T cells” value in assay [1] (day 5) is reported as “suppresses clonal expansion”. Moreover, in the assay on bcl-xL, the bcl-xL protein expression result was “strongly suppressed”. Besides, the “expression of Rac1” value in the assay with Rac1 is recorded as “not significantly suppressed”. Further, the “expression of the guanosine exchange factor vav” value in the assay on vav is given as “induced”.

On to `Cn1cnc([N+](=O)[O-])c1Sc1ncnc2nc[nH]c12` [azathioprine, Azathioprine], for which the “clonal expansion of T cells” value in assay [1] (day 5) is on record as “reduction in the clonal expansion”; in assay [1] (earlier time points than day 5), “no significant changes”. The bcl-xL protein expression entry in the assay with bcl-xL was “strongly suppressed”. Besides, the “expression of Rac1” value in the assay with Rac1 is reported as “not significantly suppressed”. Moreover, the “expression of the guanosine exchange factor vav” value in the assay with vav was “induced”.
